# What was measured:
# [1] = tested on: cells resistant or sensitive to the anticancer agent; assay: Time-lapse profiles of cells exposed to anticancer agent; format: cell-based; conditions: cisplatin 1 μM, 5 μM, 10 μM in medium
# Experimental: In this example, cisplatin was used as an exemplary anticancer agent and was mixed into the medium of exposed cells. The concentration of the anticancer agent was selected as appropriate, such as 1 μM, 5 μM, 10 μM, and the like, to observe the reaction of the cells. Cisplatin was applied to cells resistant or sensitive to the anticancer agent. Time-lapse observation was conducted to produce profiles as in the above-described examples.
# HEK293 cells = assay: Solid phase transfection with actin-like acting substances (FIG. 1); format: cell-based, human; conditions: pEGFP-N1, Effectene reagent, gelatin as control
# Experimental: (§1) The final concentration of DNA was adjusted to 1 μg/μL. An actin-like acting substance was preserved as a stock having a concentration of 10 μg/μL in ddH2O. All dilutions were made using PBS, ddH2O, or Dulbecco's MEM. A series of dilutions, for example, 0.2 μg/μL, 0.27 μg/μL, 0.4 μg/μL, 0.53 μg/μL, 0.6 μg/μL, 0.8 μg/μL, 1.0 μg/μL, 1.07 μg/μL, 1.33 μg/μL, and the like, were formulated.
# (§2) Transfection reagents and DNA were mixed to form a DNA-transfection reagent complex. Formation of the complex requires a certain period of time. Therefore, the mixture was spotted onto a solid phase support (e.g., a poly-L-lysine slide) using an arrayer. In Example 2, as a solid phase support, an APS slide, a MAS slide, and an uncoated slide were used as well as a poly-L-lysine slide. These slides are available from Matsunami Glass (Kishiwada, Japan) or the like.
# (§3) 300 μL of DNA concentrated buffer (EC buffer)+16 μL of an enhancer were mixed in an Eppendorf tube. The mixture was mixed with a Vortex, followed by incubation for 5 minutes. 50 μL of a transfection reagent (Effectene, etc.) was added to the mixture, followed by mixing by pipetting. To apply a transfection reagent, an annular wax barrier was formed around the spots on the slide. 366 μL of the mixture was added to the spot region surrounded by the wax, followed by incubation at room temperature for 10 to 20 minutes. Thereby, the fixation to the support was manually achieved.
# (§4) The growing cells were distributed to a concentration of 10^7 cells/25 mL. The cells were plated on the slide in a 100×100×15 mm squared Petri dish or a 100 mm (radius)×15 mm circular dish. Transfection was conducted for about 40 hours. This period of time corresponded to about 2 cell cycles. The slide was treated for immunofluorescence.
# (§5) To quantify transfection efficiency, the present inventors use a DNA microarray scanner (GeneTAC UC4×4, Genomic Solutions Inc., MI). Total fluorescence intensity (arbitrary unit) was measured, and thereafter, fluorescence intensity per unit surface area was calculated.
# [2] = tested on: cells on transfection array; assay: Transfection efficiency when fibronectin fragments were used (FIGS. 2-4); format: cell-based; conditions: fibronectin fragments or RGD peptide as actin-like acting substance
# Experimental: as §1, §2
# 300 μL of DNA concentrated buffer (EC buffer)+16 μL of an enhancer were mixed in an Eppendorf tube. The mixture was mixed with a Vortex, followed by incubation for 5 minutes. 50 μL of a transfection reagent (Effectene, etc.) was added to the mixture, followed by mixing by pipetting. […]
# as §5
# [3] = tested on: cells on transfection array; assay: Transfection at various fibronectin concentrations on coated and uncoated slides (FIG. 7); format: cell-based
# Experimental: as §1, §2, §3, §4, §5
# [4] = tested on: human mesenchymal stem cells (hMSC); assay: Cell adhesion profile and cross-sectional confocal observation in presence or absence of fibronectin (FIGS. 8-10); format: cell-based
compound,measurement,setting,value
N.N.[Cl][Pt][Cl] [cisplatin],time-lapse profiles,[1],varied depending on the difference in cisplatin concentration and resistance/sensitivity
RGD peptide (tripeptide) [reference compound],transfection (transfection efficiency),HEK293 cells,substantially no effect
same,transfection activity,[2],increased transfection efficiency was not exhibited
fibronectin,fibronectin concentration at which the effect was further increased,[3]; APS coating,> 1.07 µg/µL
same,fibronectin concentration at which transfection efficiency reached a plateau,[3]; PLL coating,more than 0.53 μg/μL
same,fibronectin concentration at which transfection efficiency reached a plateau,[3]; absence of coating,more than 0.53 μg/μL
same,transfection efficiency versus fibronectin concentration,"[3]; fibronectin 0, 0.27, 0.53, 0.8, 1.07, 1.33 μg/μL, FIG. 7",increased with an increase in fibronectin concentration
same,transfection (transfection efficiency),HEK293 cells,transfection took place to a significant level
same,surface area of the nucleus,"[4]; in the presence of fibronectin, FIG. 10",significantly increased
same,extension of adherent cells,"[4]; initial 3 hours of culture in the presence of fibronectin, FIG. 9",full extension of cells
gelatin [reference compound],transfection (transfection efficiency),HEK293 cells,not very successful
laminin,transfection (transfection efficiency),HEK293 cells,transfection took place to a significant level

# From patent US7747390B2, “Digital cell” (National Institute of Advanced Industrial Science and …, priority 2003, dated 2010)
